Measured values published in patent US11414404B2, “Compounds for the treatment of BRAF-associated diseases and disorders” (Array BioPharma Inc., priority 2019, dated 2022).
Where a name gives a salt, the structure may show the parent alone.

Tests used:
[1] = biological target: BCRP (Homo sapiens (Human), UniProt Q9UNQ0); assay: BCRP MDCKII permeability assay: efflux ratio; conditions: dog
Protocol: (§1) BCRP transfected MDCKII cells were cultured and plated according to manufacturer's recommendations. Assay conditions included with and without the BCRP-specific inhibitor, K0143, at a concentration of 0.3 μM to ascertain the contribution of BCRP to the efflux value of the test compound.
(§2) Both positive and negative controls were used to assess functionality of P-gp or BCRP efflux in the assays. […] Final organic concentration in the assay was 1%. All dosing solutions contained 10 μM lucifer yellow to monitor LLC-PK1 or MDCKII cell monolayer integrity.
(§3) For the apical to basolateral determination (A to B), 75 μL of the test article in transport buffer were added to the apical side of the individual transwells and 250 μL of basolateral media, without compound or lucifer yellow, were added to each well. For the basolateral to apical determination (B to A), 250 μL of test article in transport buffer were added to each well and 75 μL transport buffer, without compound or lucifer yellow, were added to each transwell. All tests were performed in triplicate, and each compound was tested for both apical to basolateral and basolateral to apical transport. The plates were incubated for 2 hours on a Lab-Line Instruments Titer Orbital Shaker (VWR, West Chester, Pa.) at 50 rpm and 37° C. with 5% CO2. All culture plates were removed from the incubator and 50 μL of media were removed from the apical and basolateral portion of each well and added to 150 μL of 1 μM labetalol in 2:1 acetonitrile (acetonitrile): H2O, v/v.
(§4) These values were accepted when found to be below 2% for apical to basolateral and 5% basolateral to apical flux across the MDR1-transfected LLC-PK1 or BCRP-transfected MDCKII cell monolayers. The plates were sealed and the contents of each well analyzed by LC-MS/MS. The compound concentrations were determined from the ratio of the peak areas of the compound to the internal standard (labetalol) in comparison to the dosing solution.
(§5) The LC-MS/MS system was comprised of an HTS-PAL autosampler (Leap Technologies, Carrboro, N.C.), an HP1200 HPLC (Agilent, Palo Alto, Calif.), and a MDS Sciex 4000 Q Trap system (Applied Biosystems, Foster City, Calif.). […] The total run time, including re-equilibration, for a single injection was 1.2 minutes. Mass spectrometric detection of the analytes was accomplished using the ion spray positive mode.
(§6) An efflux ratio is calculated from the mean apical to basolateral (A−B) Papp data and basolateral to apical (B−A) Papp data: Efflux ratio=Papp(B−A)/Papp(A−B)

[2] = MDR1 LLC-PK1 and BCRP MDCKII permeability assay: permeability coefficient (Papp)
Protocol: (§7) Both LLC-PK1 and MDR1 transfected LLC-PK1 cells were cultured and plated according to manufacturer's recommendations with the exception that the passage media contained only 2% fetal bovine serum to extend passage time out to seven days.
as §1, §2, §3, §4, §5
where Cd, V, t and C0 are the detected concentration (μM), the volume on the dosing side (mL); the incubation time (s) and the initial dosing concentration (μM), respectively. The calculations for Papp were made for each replicate and then averaged.

[3] = biological target: full-length FLAG-tagged B-Raf(V600E) (Homo sapiens (Human), UniProt P15056, V600E); assay: BRAF V600E enzyme assay (TR-FRET competitive displacement of fluorescent tracer); type: binding; conditions: averaged IC50; 60 min at ambient temperature; 11-point dosing, top dose 10 μM
From the text: A competitive displacement assay was configured for B-Raf that monitors the amount of a fluorescently-tagged “tracer” bound to B-Raf via TR-FRET from an anti-tag Eu-labeled antibody also bound to B-Raf.
[formula] • where: • Xmax Average Uninhibited Controls • Xmin Average Background
A 4-parameter logistic model was the fit to the POC data for each compound.

[4] = biological target: P-gp (MDR1) (Homo sapiens (Human), UniProt P08183); assay: MDR1 LLC-PK1 permeability assay: efflux ratio; conditions: pig, LLC-PK1
P-gp (MDR1), sequence (P08183 whole entry, species assumed): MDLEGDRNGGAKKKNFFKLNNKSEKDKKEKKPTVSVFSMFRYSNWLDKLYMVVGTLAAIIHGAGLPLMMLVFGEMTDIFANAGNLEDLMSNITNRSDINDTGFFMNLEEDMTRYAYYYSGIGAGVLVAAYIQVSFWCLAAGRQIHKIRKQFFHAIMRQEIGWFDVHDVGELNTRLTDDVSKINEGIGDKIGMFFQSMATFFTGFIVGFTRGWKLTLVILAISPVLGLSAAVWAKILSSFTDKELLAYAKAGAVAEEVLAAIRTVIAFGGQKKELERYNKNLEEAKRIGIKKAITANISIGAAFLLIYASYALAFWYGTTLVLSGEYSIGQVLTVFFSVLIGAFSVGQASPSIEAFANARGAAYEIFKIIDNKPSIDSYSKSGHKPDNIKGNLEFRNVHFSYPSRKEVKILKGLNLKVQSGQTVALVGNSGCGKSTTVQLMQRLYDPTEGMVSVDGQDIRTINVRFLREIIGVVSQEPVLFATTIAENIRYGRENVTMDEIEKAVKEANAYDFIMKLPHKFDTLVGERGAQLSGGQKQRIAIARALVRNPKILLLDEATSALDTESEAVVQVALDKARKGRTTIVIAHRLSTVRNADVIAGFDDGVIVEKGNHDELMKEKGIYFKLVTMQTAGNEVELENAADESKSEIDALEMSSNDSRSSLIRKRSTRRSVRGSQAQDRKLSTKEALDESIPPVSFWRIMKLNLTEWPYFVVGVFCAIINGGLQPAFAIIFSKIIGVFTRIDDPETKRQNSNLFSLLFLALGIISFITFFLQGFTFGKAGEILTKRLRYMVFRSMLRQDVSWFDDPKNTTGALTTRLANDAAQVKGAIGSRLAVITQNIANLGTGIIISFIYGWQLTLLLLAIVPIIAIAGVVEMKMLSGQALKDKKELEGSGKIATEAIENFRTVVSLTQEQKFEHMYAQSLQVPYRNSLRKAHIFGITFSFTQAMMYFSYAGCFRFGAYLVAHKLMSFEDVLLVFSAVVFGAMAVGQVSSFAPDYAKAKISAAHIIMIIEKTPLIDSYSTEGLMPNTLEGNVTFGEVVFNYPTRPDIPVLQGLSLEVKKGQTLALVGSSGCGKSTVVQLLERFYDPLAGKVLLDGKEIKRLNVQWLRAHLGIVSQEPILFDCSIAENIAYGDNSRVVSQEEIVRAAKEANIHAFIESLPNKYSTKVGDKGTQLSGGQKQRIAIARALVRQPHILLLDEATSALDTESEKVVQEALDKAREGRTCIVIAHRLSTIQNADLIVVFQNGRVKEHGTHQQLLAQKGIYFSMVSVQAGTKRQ
Protocol: as §7, §2, §3, §4, §5, §6

full-length FLAG-tagged B-Raf(V600E), sequence (P15056 whole entry V600E): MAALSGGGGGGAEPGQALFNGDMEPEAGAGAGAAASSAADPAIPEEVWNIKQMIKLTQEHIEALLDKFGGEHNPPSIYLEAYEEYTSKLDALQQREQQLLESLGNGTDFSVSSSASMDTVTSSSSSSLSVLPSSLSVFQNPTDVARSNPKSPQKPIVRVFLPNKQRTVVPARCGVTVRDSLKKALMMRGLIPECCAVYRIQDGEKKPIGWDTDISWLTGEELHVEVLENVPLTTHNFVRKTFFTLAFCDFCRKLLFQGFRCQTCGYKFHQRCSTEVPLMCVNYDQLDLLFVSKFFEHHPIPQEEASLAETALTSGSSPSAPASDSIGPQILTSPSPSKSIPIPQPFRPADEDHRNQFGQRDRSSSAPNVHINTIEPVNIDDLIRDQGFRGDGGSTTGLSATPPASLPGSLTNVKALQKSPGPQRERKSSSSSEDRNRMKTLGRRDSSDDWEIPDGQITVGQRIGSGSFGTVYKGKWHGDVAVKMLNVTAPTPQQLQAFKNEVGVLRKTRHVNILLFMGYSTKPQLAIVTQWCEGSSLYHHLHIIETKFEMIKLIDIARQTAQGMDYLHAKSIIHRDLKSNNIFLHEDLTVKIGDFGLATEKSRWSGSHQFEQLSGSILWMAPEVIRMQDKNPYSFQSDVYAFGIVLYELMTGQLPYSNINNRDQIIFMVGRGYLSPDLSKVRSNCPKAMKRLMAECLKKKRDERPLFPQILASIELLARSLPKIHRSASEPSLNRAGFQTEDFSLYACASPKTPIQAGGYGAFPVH
BCRP, sequence (Q9UNQ0 whole entry, species assumed): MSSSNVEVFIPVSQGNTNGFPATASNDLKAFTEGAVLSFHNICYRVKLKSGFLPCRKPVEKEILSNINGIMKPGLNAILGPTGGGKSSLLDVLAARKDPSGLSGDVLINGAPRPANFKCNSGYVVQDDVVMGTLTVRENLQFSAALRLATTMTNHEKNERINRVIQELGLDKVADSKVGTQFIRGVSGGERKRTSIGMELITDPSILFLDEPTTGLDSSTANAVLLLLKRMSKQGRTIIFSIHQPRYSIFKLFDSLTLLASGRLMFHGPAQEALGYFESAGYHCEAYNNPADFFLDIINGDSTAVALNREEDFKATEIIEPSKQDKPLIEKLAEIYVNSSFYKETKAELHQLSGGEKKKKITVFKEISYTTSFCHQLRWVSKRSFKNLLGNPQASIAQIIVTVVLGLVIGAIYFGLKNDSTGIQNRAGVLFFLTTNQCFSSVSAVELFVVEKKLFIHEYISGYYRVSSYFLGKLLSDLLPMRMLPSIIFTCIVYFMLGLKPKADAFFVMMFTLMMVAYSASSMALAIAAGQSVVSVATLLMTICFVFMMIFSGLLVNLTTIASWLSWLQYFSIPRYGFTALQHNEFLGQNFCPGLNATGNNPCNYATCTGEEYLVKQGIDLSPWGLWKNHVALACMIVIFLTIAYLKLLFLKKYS

efflux ratio at 2 h, 1 µM [1]	Papp at 2 h, 1 µM [2] [×10⁻⁶ cm/s]	IC50 [3] [nM]	efflux ratio at 2 h, 1 µM [4]	Structure (SMILES)
0.9	177	92.4	1.4	CCCS(=O)(=O)Nc1ccc(F)c(Sc2ccc3ncn(C)c(=O)c3c2C)c1Cl [Example 65, N-(2-chloro-3-((3,5-dimethyl-4-oxo-3,4-dihydroquinazolin-6-yl)thio)-4-fluorophenyl)propane-1-sulfonamide]
1.33	14.2	52.6	1.29	CCCS(=O)(=O)Nc1ccc(F)c(Nc2ccc3ncn(C4CCCC4)c(=O)c3c2C)c1Cl [Example 39, N-(2-chloro-3-((3-cyclopentyl-5-methyl-4-oxo-3,4-dihydroquinazolin-6-yl)amino)-4-fluorophenyl)propane-1-sulfonamide trifluoroacetate]
7.43	32.9	0.7	1.86	Cc1c(Nc2c(F)ccc(NS(=O)(=O)c3ccco3)c2Cl)ccc2ncn(C)c(=O)c12 [Example 20, N-(2-chloro-3-((3,5-dimethyl-4-oxo-3,4-dihydroquinazolin-6-yl)amino)-4-fluorophenyl)furan-2-sulfonamide]
10.4	27.9	7.85	1.52	CCCS(=O)(=O)Nc1ncc(F)c(Nc2ccc3ncn(C)c(=O)c3c2C)c1Cl [Example 18, N-(3-chloro-4-((3,5-dimethyl-4-oxo-3,4-dihydroquinazolin-6-yl)amino)-5-fluoropyridin-2-yl)propane-1-sulfonamide]
25.2	22.2	1.75	4.68	Cc1c(Nc2c(F)c(F)cc(NS(=O)(=O)CCCF)c2F)ccc2ncn(C)c(=O)c12 [Example 6, N-(3-((3,5-dimethyl-4-oxo-3,4-dihydroquinazolin-6-yl)amino)-2,4,5-trifluorophenyl)-3-fluoropropane-1-sulfonamide]
1.08	26.5	13.9	1.38	CCCS(=O)(=O)Nc1ccc(Cl)c(Nc2ccc3ncn(C)c(=O)c3c2C)c1Cl [Example 14, N-(2,4-dichloro-3-((3,5-dimethyl-4-oxo-3,4-dihydroquinazolin-6-yl)amino)phenyl)propane-1-sulfonamide]
1.57	20.6	28.3	1.15	CCCS(=O)(=O)Nc1ccc(F)c(Nc2ccc3ncn(CC4CC4)c(=O)c3c2C)c1Cl [Example 38, N-(2-chloro-3-((3-(cyclopropylmethyl)-5-methyl-4-oxo-3,4-dihydroquinazolin-6-yl)amino)-4-fluorophenyl)propane-1-sulfonamide]
0.3	47.5	1.55	0.93	CCCS(=O)(=O)Nc1cc(F)c(F)c(Oc2ccc3ncn(C)c(=O)c3c2C)c1Cl [Example 73, N-(2-chloro-3-((3,5-dimethyl-4-oxo-3,4-dihydroquinazolin-6-yl)oxy)-4,5-difluorophenyl)propane-1-sulfonamide]
1.81	25.6	7.7	1.86	CCCS(=O)(=O)Nc1cc(F)c(F)c(Oc2ccc3ncn(C)c(=O)c3c2C)c1F [Example 72, N-(3-((3,5-dimethyl-4-oxo-3,4-dihydroquinazolin-6-yl)oxy)-2,4,5-trifluorophenyl)propane-1-sulfonamide]
0.84	26.6	97.7	1.2	CCC(C)S(=O)(=O)Nc1ccc(F)c(Nc2ccc3ncn(C)c(=O)c3c2C)c1Cl (stereo not drawn) [Example 61, N-(2-chloro-3-((3,5-dimethyl-4-oxo-3,4-dihydroquinazolin-6-yl)amino)-4-fluorophenyl)butane-2-sulfonamide]
18.6	30.1	14.2	3.92	Cc1c(Nc2c(F)ccc(NS(=O)(=O)CCCF)c2F)ccc2ncn(C)c(=O)c12 [Example 2, N-(3-((3,5-dimethyl-4-oxo-3,4-dihydroquinazolin-6-yl)amino)-2,4-difluorophenyl)-3-fluoropropane-1-sulfonamide]
1.33	21.9	24	1.2	CCCS(=O)(=O)Nc1ccc(F)c(Nc2ccc3ncn(C4CCC4)c(=O)c3c2C)c1Cl [Example 33, N-(2-chloro-3-((3-cyclobutyl-5-methyl-4-oxo-3,4-dihydroquinazolin-6-yl)amino)-4-fluorophenyl)propane-1-sulfonamide trifluoroacetate]
1.17	19.1	2.55	1.73	CCCS(=O)(=O)Nc1cc(Cl)cc(Oc2ccc3ncn(C)c(=O)c3c2C)c1F [Example 70, N-(5-chloro-3-((3,5-dimethyl-4-oxo-3,4-dihydroquinazolin-6-yl)oxy)-2-fluorophenyl) propane-1-sulfonamide]
1.78	29.4	24.5	1.92	CCCS(=O)(=O)Nc1ccc(F)c(Nc2ccc3ncn([C@H]4CCOC4)c(=O)c3c2C)c1Cl [Example 35, (S)-N-(2-chloro-4-fluoro-3-((5-methyl-4-oxo-3-(tetrahydrofuran-3-yl)-3,4-dihydroquinazolin-6-yl)amino)phenyl)propane-1-sulfonamide trifluoroacetate]
0.77	19.2	34.7	1.22	Cc1c(Nc2c(F)ccc(NS(=O)(=O)N3CCCC3)c2Cl)ccc2ncn(C)c(=O)c12 [Example 21, N-(2-chloro-3-((3,5-dimethyl-4-oxo-3,4-dihydroquinazolin-6-yl)amino)-4-fluorophenyl)pyrrolidine-1-sulfonamide]
23.8	24.4	0.46	4.1	CCCS(=O)(=O)Nc1ccc(F)c(Oc2ccc3ncn(C)c(=O)c3c2C)c1C#N [Example 69, N-(2-cyano-3-((3,5-dimethyl-4-oxo-3,4-dihydroquinazolin-6-yl)oxy)-4-fluorophenyl)propane-1-sulfonamide]
1.13	27	9.75	0.93	CCCS(=O)(=O)Nc1cc(F)cc(Nc2ccc3ncn(C)c(=O)c3c2C)c1Cl [Example 12, N-(2-chloro-3-((3,5-dimethyl-4-oxo-3,4-dihydroquinazolin-6-yl)amino)-5-fluorophenyl)propane-1-sulfonamide]
1.06	23.1	8.55	2.14	Cc1c(Oc2cccc(NS(=O)(=O)CCCF)c2Cl)ccc2ncn(C)c(=O)c12 [Example 79, N-(2-chloro-3-((3,5-dimethyl-4-oxo-3,4-dihydroquinazolin-6-yl)oxy)phenyl)-3-fluoropropane-1-sulfonamide]
1.3	28.5	33	1.2	CCCS(=O)(=O)Nc1cccc(Oc2ccc3ncn(C)c(=O)c3c2C)c1F [Example 68, N-(3-((3,5-dimethyl-4-oxo-3,4-dihydroquinazolin-6-yl)oxy)-2-fluorophenyl)propane-1-sulfonamide]
2.03	42.5	20.8	1.3	Cc1c(Oc2cccc(NS(=O)(=O)CCCF)c2F)ccc2ncn(C)c(=O)c12 [Example 80, N-(3-((3,5-dimethyl-4-oxo-3,4-dihydroquinazolin-6-yl)oxy)-2-fluorophenyl)-3-fluoropropane-1-sulfonamide]
1.08	25.1	3.4	1.36	CCCS(=O)(=O)Nc1ccc(F)c(Nc2ccc3ncn(CC(F)(F)F)c(=O)c3c2C)c1Cl [Example 59, N-(2-chloro-4-fluoro-3-((5-methyl-4-oxo-3-(2,2,2-trifluoroethyl)-3,4-dihydroquinazolin-6-yl)amino)phenyl)propane-1-sulfonamide]
27.9	23.1	4.08	1.7	CCCS(=O)(=O)Nc1cccc(Oc2ccc3ncn(C)c(=O)c3c2C)c1C#N [Example 66, N-{2-Cyano-3-[(3,5-dimethyl-4-oxo-3,4-dihydroquinazolin-6-yl)oxy]phenyl}propane-1-sulfonamide]
3.28	29.8	2820	2.79	CCCS(=O)(=O)Nc1ccc(F)c(Nc2ccc3ncn(C)c(=O)c3c2C)c1C [Example 41, N-(3-((3,5-dimethyl-4-oxo-3,4-dihydroquinazolin-6-yl)amino)-4-fluoro-2-methylphenyl)propane-1-sulfonamide]

Structure (SMILES)	efflux ratio at 2 h, 1 µM [1]	Papp at 2 h, 1 µM [2] [×10⁻⁶ cm/s]	IC50 [3] [nM]	efflux ratio at 2 h, 1 µM [4]
CCCS(=O)(=O)Nc1ccc(F)c(Nc2ccc3ncn(CC)c(=O)c3c2C)c1Cl [Example 37, N-(2-chloro-3-((3-ethyl-5-methyl-4-oxo-3,4-dihydroquinazolin-6-yl)amino)-4-fluorophenyl)propane-1-sulfonamide trifluoroacetate]	0.87	29.9	5.5	0.94
